Key:
[1] = target: T1, pseudo-kinase domain (JH2) of human V617F mutant JAK2 (Homo sapiens, UniProt O60674, F794H/V617F/W659A/W777A); test: JAK2 LanthaScreen JH2-V617F Binding Assay; settings: 50 nM Fluorescent JAK2-JH2 Tracer, 1 hour at 25° C., read-out: JH2 BIND V617F
T1 construct: pseudo-kinase domain (JH2, amino-acids 536-812 with 3 surface mutations W659A, W777A, F794H); purchased BPS Bioscience 79498; host or cells: baculovirus expression system
Experimental: Example B. JAK2 LanthaScreen JH2-V617F Binding Assay
JAK2 JH2-V617F binding assay utilizes pseudo-kinase domain (JH2, amino-acids 536-812 with 3 surface mutations W659A, W777A, F794H) of human V617F mutant JAK2 expressed as C-terminal His-Avi-tagged, biotinylated protein in a baculovirus expression system (BPS Bioscience, Catalog #79498). The assay was conducted in black 384-well polystyrene plates in a final reaction volume of 20 μL. JAK2 JH2-V617F (0.26 nM) was incubated with compounds (100 nL serially diluted in DMSO) in the presence of 50 nM Fluorescent JAK2-JH2 Tracer (MedChem Express Catalog #HY-102055) and 0.25 nM Streptavidin-Tb cryptate (Cisbio Part #610SATLB) in assay buffer (50 mM Tris, pH=7.5, 10 mM MgCl2, 0.01% Brij-35, 0.1% BSA, 1 mM EGTA, 5% Glycerol and 5 mM DTT). Non-specific binding was accessed in the presence of 2 mM ATP. After incubation for 1 hour at 25° C., LanthaScreen signals were read on a PHERAstar FS plate reader (BMG LABTECH). Data was analyzed with IDBS XLfit and GraphPad Prism 5.0 software using a four parameter dose response curve to determine IC50 for each compound.

[2] = target: T2, catalytic domain (JH1) of JAK2 protein (Homo sapiens, UniProt O60674); test: JAK2 (JH1) Enzymatic Assay at ATP=Km (30 μM), TR-FRET; type: biochemical; settings: 30 μM ATP (=Km), 60 min at 25° C., read-out: V617F ENZ 30 μM
T2 construct: phosphorylated on the tyrosine residue by catalytic domain (JH1) of JAK2 protein; purchased BPS 40450
Experimental: Example A. JAK2 (JH1) Enzymatic Assay at ATP=Km (30 μM)
Inhibitor potency was determined in TR-FRET assay, which measures HTRF signal generated as a result of Eu-labeled anti-phosphotyrosine antibody binding to Biotin-labeled peptide, phosphorylated on the tyrosine residue by catalytic domain (JH1) of JAK2 protein in the presence of ATP-Mg and Allophycocyanin-streptavidin (APC-SA). JH1 domain of JAK2 protein was purchased from BPS (#40450), Eu-W1204-labeled Anti-Phosphotyrosine Antibody (PY-20) and SureLight Allophycocyanin-streptavidin were purchased from PerkinElmer (#AD0067 and #AD0201). Peptide Biot-EQEDEPEGDYFEWLEES-amide (SEQ ID NO.: 1) was purchased from Quality Controlled Biochemicals, MA (Q307-166). Assay buffer consisted of 50 mM Tris, pH=7.5, 10 mM MgCl2, 0.01% Brij-35, 0.1% BSA, 1 mM EGTA, 5% Glycerol and 5 mM DTT. To assess the inhibition of the enzymatic activity, compound was serially diluted in DMSO and a volume of 0.1 μL was transferred to the wells of a black regular volume 384-well plate (Greiner #781076) using Echo Liquid Handler (Labcyte Inc.). Positive and Negative control wells contained 0.1 μL of DMSO.
Enzyme (catalytic domain JH1 of JAK2) was diluted in assay buffer, and the Multidrop Combi liquid handler (Thermo Scientific) was used to dispense 10 μL to each well (except positive control wells, to which 10 μL of assay buffer were dispensed instead of protein).
Plate was centrifuged and reaction was started by addition of 10 μL of substrate solution containing biotinylated peptide and ATP to all wells. Plate was again centrifuged and enzymatic reaction was allowed to proceed for 60 min. at 25° C. Final concentrations in the assay were as follows: 0.02 nM protein, 30 uM ATP, 0.5 uM biotinylated peptide. Reaction was stopped by addition of 10 μL of solution, containing 45 mM EDTA, 144 nM APC/225 nM Streptavidin, and 4.5 nM Eu-Ab in detection buffer: 50 mM Tris, pH=7.8, 150 mM NaCl, 0.5 mg/ml BSA.
Plate was centrifuged and incubated for 30 min. at room temperature. HTRF signal was measured on PHERAstar plate reader instrument (BMG Labtech) with excitation at 337 nm and emissions at 620 nm and 665 nm. Data analysis tools integrated in Genedata Screener software were used to analyze the results. Raw data was normalized to percent of vehicle (DMSO) Negative control, after subtracting no-enzyme Positive inhibitor control. The IC50 values were derived by fitting the data to a four parameter logistic equation producing a sigmoidal dose-response curve using the following equation: Y=Bottom+(Top−Bottom)/(1+10^((Log IC50−X)*Hill slope)) where X is the logarithm of inhibitor concentration and Y is the response.

T1 sequence (O60674 536-812 V617F/W659A/W777A/F794H): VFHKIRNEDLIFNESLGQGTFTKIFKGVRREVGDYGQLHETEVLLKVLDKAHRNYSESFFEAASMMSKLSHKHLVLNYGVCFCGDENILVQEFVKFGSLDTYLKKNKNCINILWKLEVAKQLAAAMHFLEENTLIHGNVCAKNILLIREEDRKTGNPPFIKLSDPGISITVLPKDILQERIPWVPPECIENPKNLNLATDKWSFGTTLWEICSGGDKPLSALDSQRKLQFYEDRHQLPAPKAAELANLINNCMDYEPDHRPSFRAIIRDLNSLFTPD
T2 sequence (O60674 849-1124 limits assumed): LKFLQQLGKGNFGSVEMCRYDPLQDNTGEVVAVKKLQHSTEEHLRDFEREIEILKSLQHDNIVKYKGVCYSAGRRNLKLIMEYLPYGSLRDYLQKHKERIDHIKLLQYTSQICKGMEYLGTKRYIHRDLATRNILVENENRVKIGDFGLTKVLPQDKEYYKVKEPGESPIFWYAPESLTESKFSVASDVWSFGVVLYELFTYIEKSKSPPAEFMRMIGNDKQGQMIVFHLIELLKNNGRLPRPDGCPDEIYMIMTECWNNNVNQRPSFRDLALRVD

CNc1ncc(-c2cccc(-c3cnn(C4CN(Cc5cccc(C(=O)N(C)C)n5)C4)c3)c2OC)c2cc(NC(=O)C3CC3)nnc12 [Example 11, 6-((3-(4-(3-(3-(Cyclopropanecarboxamido)-8-(methylamino)pyrido[3,4-c]pyridazin-5-yl)-2-methoxyphenyl)-1H-pyrazol-1-yl)azetidin-1-yl)methyl)-N,N-dimethylpicolinamide]
IC50 [1]: ≤ 10 nM | IC50 [2]: > 1000 nM

CNc1ncc(-c2cccc(-c3cnn(C4CCN(Cc5ccccn5)CC4)c3)c2OC)c2cc(NC(=O)C3CC3)ncc12 [Example 9, N-(5-(2-Methoxy-3-(1-(1-(pyridin-2-ylmethyl)piperidin-4-yl)-1H-pyrazol-4-yl)phenyl)-8-(methylamino)-2,7-naphthyridin-3-yl)cyclopropanecarboxamide]
IC50 [1]: 10 to 100 nM | IC50 [2]: > 1000 nM

CNc1ncc(-c2cccc(-c3cnn(C4CN(CC56CCCC(C(=O)N(C)C)(C5)C6)C4)c3)c2OC)c2cc(NC(=O)C3CC3)ncc12 [Example 24, 5-((3-(4-(3-(6-(Cyclopropanecarboxamido)-1-(methylamino)-2,7-naphthyridin-4-yl)-2-methoxyphenyl)-1H-pyrazol-1-yl)azetidin-1-yl)methyl)-N,N-dimethylbicyclo[3.1.1]heptane-1-carboxamide]
IC50 [1]: 10 to 100 nM | IC50 [2]: > 1000 nM

CNc1ncc(-c2cccc(-c3cnn(C4CN(Cc5cccc(C(=O)N6CCCC6)n5)C4)c3)c2OC)c2cc(NC(=O)C3CC3)ncc12 [Example 4, N-(5-(2-Methoxy-3-(1-(1-((6-(pyrrolidine-1-carbonyl)pyridin-2-yl)methyl)azetidin-3-yl)-1H-pyrazol-4-yl)phenyl)-8-(methylamino)-2,7-naphthyridin-3-yl)cyclopropane-carboxamide]
IC50 [1]: ≤ 10 nM | IC50 [2]: > 1000 nM

COc1c(-c2cnn(C3CN(Cc4cccc(C(=O)N5CCCC5)n4)C3)c2)cccc1-c1cnc(N)c2cnc(NC(=O)C3CC3)cc12 [Example 18, N-(8-Amino-5-(2-methoxy-3-(1-(1-((6-(pyrrolidine-1-carbonyl)pyridin-2-yl)methyl)azetidin-3-yl)-1H-pyrazol-4-yl)phenyl)-2,7-naphthyridin-3-yl)cyclopropane-carboxamide]
IC50 [1]: ≤ 10 nM | IC50 [2]: 10 to 100 nM

CNc1ncc(-c2cccc(-c3cnn(C4CN(Cc5cccc(S(C)(=O)=O)n5)C4)c3)c2OC)c2cc(NC(=O)C3CC3)ncc12 [Example 6, N-(5-(2-Methoxy-3-(1-(1-((6-(methylsulfonyl)pyridin-2-yl)methyl)azetidin-3-yl)-1H-pyrazol-4-yl)phenyl)-8-(methylamino)-2,7-naphthyridin-3 yl)cyclopropane carboxamide]
IC50 [1]: ≤ 10 nM | IC50 [2]: > 1000 nM

COC(=O)c1cccc(CN2CC(n3cc(-c4cccc(-c5cnc(NC(C)=O)c6cnc(NC(=O)C7CC7)cc56)c4OC)cn3)C2)n1 [Example 22, Methyl 6-((3-(4-(3-(1-acetamido-6-(cyclopropanecarboxamido)-2,7-naphthyridin-4-yl)-2-methoxyphenyl)-1H-pyrazol-1-yl)azetidin-1-yl)methyl)picolinate]
IC50 [1]: ≤ 10 nM | IC50 [2]: > 1000 nM

COc1c(-c2cnn(C3CN(Cc4ccccn4)C3)c2)cccc1-c1cnc(N)c2cnc(NC(=O)C3CC3)cc12 [Example 21, N-(8-Amino-5-(2-methoxy-3-(1-(1-(pyridin-2-ylmethyl)azetidin-3-yl)-1H-pyrazol-4-yl)phenyl)-2,7-naphthyridin-3-yl)cyclopropanecarboxamide]
IC50 [1]: ≤ 10 nM | IC50 [2]: 100 to 500 nM

CNc1ncc(-c2cccc(-c3cnn(C4CN(Cc5cccc(C(=O)N(C)C6CC6)n5)C4)c3)c2OC)c2cc(NC(=O)C3CC3)nnc12 [Example 12, 6-((3-(4-(3-(3-(Cyclopropanecarboxamido)-8-(methylamino)pyrido[3,4-c]pyridazin-5-yl)-2-methoxyphenyl)-1H-pyrazol-1-yl)azetidin-1-yl)methyl)-N-cyclopropyl-N-methylpicolinamide]
IC50 [1]: ≤ 10 nM | IC50 [2]: > 1000 nM

CNc1ncc(-c2cccc(-c3cnn(C4CN(C(=O)c5cccc(C(=O)N(C)C)n5)C4)c3)c2OC)c2cc(NC(=O)C3CC3)ncc12 [Example 8, 6-(3-(4-(3-(6-(Cyclopropanecarboxamido)-1-(methylamino)-2,7-naphthyridin-4-yl)-2-methoxyphenyl)-1H-pyrazol-1-yl)azetidine-1-carbonyl)-N,N-dimethylpicolinamide]
IC50 [1]: ≤ 10 nM | IC50 [2]: > 1000 nM

CNc1ncc(-c2cccc(-c3cnn(C4CN(Cc5csc(C(=O)N(C)CC(F)(F)F)n5)C4)c3)c2OC)c2cc(NC(=O)C3CC3)ncc12 [Example 5, 4-((3-(4-(3-(6-(Cyclopropane-carboxamido)-1-(methylamino)-2,7-naphthyridin-4-yl)-2-methoxyphenyl)-1H-pyrazol-1-yl)azetidin-1-yl)methyl)-N-methyl-N-(2,2,2-trifluoroethyl) thiazole-2-carboxamide]
IC50 [1]: 10 to 100 nM | IC50 [2]: > 1000 nM

CNc1ncc(-c2cccc(-c3cnn(C4CN(Cc5cccc(C(=O)N(C)CC(F)(F)F)n5)C4)c3)c2OC)c2cc(NC(=O)C3CC3)ncc12 [Example 3, 6-((3-(4-(3-(6-(Cyclopropane-carboxamido)-1-(methylamino)-2,7-naphthyridin-4-yl)-2-methoxyphenyl)-1H-pyrazol-1-yl)azetidin-1-yl)methyl)-N-methyl-N-(2,2,2-trifluoroethyl) picolinamide]
IC50 [1]: ≤ 10 nM | IC50 [2]: > 1000 nM

COc1c(-c2cnn(C3CN(Cc4cccc(C(=O)N5CCOCC5)n4)C3)c2)cccc1-c1cnc(N)c2cnc(NC(=O)C3CC3)cc12 [Example 20, N-(8-amino-5-(2-methoxy-3-(1-(1-((6-(morpholine-4-carbonyl)pyridin-2-yl)methyl)azetidin-3-yl)-1H-pyrazol-4-yl)phenyl)-2,7-naphthyridin-3-yl)cyclopropane-carboxamide]
IC50 [1]: ≤ 10 nM | IC50 [2]: 100 to 500 nM

CNc1ncc(-c2cccc(-c3cnn(C4CN(Cc5cccc(C(=O)N(C)C)n5)C4)c3)c2OC)c2cc(NC(=O)C3CC3)ncc12 [Example 1, 6-((3-(4-(3-(6-(Cyclopropanecarboxamido)-1-(methylamino)-2,7-naphthyridin-4-yl)-2-methoxyphenyl)-1H-pyrazol-1-yl)azetidin-1-yl)methyl)-N,N-dimethylpicolinamide]
IC50 [1]: ≤ 10 nM | IC50 [2]: > 1000 nM

COc1c(-c2cnn(C3CN(Cc4cccc(C(=O)N(C)CC(F)(F)F)n4)C3)c2)cccc1-c1cnc(N)c2cnc(NC(=O)C3CC3)cc12 [Example 17, 6-((3-(4-(3-(1-Amino-6-(cyclopropane-carboxamido)-2,7-naphthyridin-4-yl)-2-methoxyphenyl)-1H-pyrazol-1-yl)azetidin-1-yl)methyl)-N-methyl-N-(2,2,2-trifluoroethyl) picolinamide]
IC50 [1]: ≤ 10 nM | IC50 [2]: 10 to 100 nM
